# Results reported in PMC10799292, “The Role of β-Defensin 1 Against Porphyromonas gingivalis Lipopolysaccharide-Mediated Inflammation in the THP-1 Cell Line” (Cureus, 2023).
# No end group written: not given here.
# What was measured:
# [1] = tested on: MPO; assay: Myeloperoxidase (MPO) activity in lysate of Pg-LPS stimulated THP-1 cells; type: cell-based, human; settings: for MPO Enzyme activity Average / MPO Enzyme activity 1 / MPO Enzyme activity 2: Pg-LPS 1 µg/mL, 24 h; for MPO Enzyme activity Average: mean of duplicates; for MPO Enzyme activity 1: replicate 1; for MPO Enzyme activity 2: replicate 2
# Procedure: (§1) For inducing differentiation of THP-1 cells into macrophages, the cell line was premixed with 25 ng/mL PMA and incubated for 48 hours. After incubation, 5x10^4 cells were activated with Pg-LPS (LPS: 1 µg/mL) for one hour. Pg-LPS stimulated cells were exposed to different concentrations (6.25, 12.5, and 25 ng/mL) of β-defensin 1 and incubated for 24 hours. After incubation, the following anti-inflammatory assays were conducted utilizing the cell lysate.
# Cell lysate was homogenized in hexadecyltrimethyl ammonium bromide (HTAB) and potassium phosphate buffer. The samples were centrifuged at 2000g for 30 minutes at 4°C and the activity of myeloperoxidase (MPO) enzyme was measured with the supernatant. MPO in the sample was stimulated by adding 50 mM phosphate buffer (pH 6) containing 1.67 mg/mL guaiacol and 0.0005% hydrogen peroxide. The absorbance change at […] was determined. The MPO activity (U) was shown as units per milliliter of cell lysate. At 25 °C, one unit of MPO activity corresponds to the degradation of 1µM peroxide per minute.
# where ΔOD is the density change, Vt is the total volume (mL) (1.1 mL ), L is the light path (1 cm), and £470 is the extinction coefficient for tetraguaiacol (26.6 mM^-1·cm^-1).
# [2] = tested on: LOX; assay: Lipoxygenase (LOX) activity inhibition in lysate of Pg-LPS stimulated THP-1 cells; type: cell-based, human; settings: for LOX Percentage inhibition Average / LOX Percentage inhibition 1 / LOX Percentage inhibition 2: Pg-LPS 1 µg/mL, 24 h; for LOX Percentage inhibition Average: mean of duplicates; for LOX Percentage inhibition 1: replicate 1; for LOX Percentage inhibition 2: replicate 2
# Procedure: as §1
# The lipoxygenase (LOX) activity was determined using the method described by Axelrod in 1981 [12]. The reaction mixture consisted of 50 µL of cell lysate, Tris-HCl buffer (pH 7.4), and 200 µL of sodium linoleate. By determining absorbance at 234 nm (Agilent Cary 60), the formation of […], an indicator of LOX activity, was tracked. The percentage inhibition of the enzyme was computed as […]
# [3] = tested on: THP-1 cells; assay: Intracellular ROS generation, DCFDA assay; type: cell-based, human; settings: β-defensin 1 22.62 ng/mL 24 h after Pg-LPS 1 µg/mL 1 h; DCFDA 30 min, ex 470 nm, em 635 nm; untreated control 2379
# Procedure: Untreated control and Pg-LPS treated wells were also maintained. The cells were washed with PBS, and 50 µl of Dichlorodihydrofluorescein diacetate (DCFDA) was added, followed by incubation for 30 minutes. After incubation, excess dye was removed with PBS, and fluorescence was observed using a fluorescent microscope (Olympus CKX41 with Optika Pro5 CCD camera) and quantified with a fluorimeter at 470 nm excitation and emission at […] (Qubit 3.0, Life Technologies, USA), displaying the results in arbitrary units (AU).
# The effect of β-defensin 1 on ROS generation in THP-1 cells stimulated with Pg-LPS was studied. DCFDA, a fluorogenic dye, measures hydroxyl, peroxyl, and other ROS activities within the cell. After entering the cell, DCFDA is deacetylated by cellular esterases into a non-fluorescent compound. This nonfluorescent chemical is then oxidized by ROS into […] (DCF), which, upon excitation with a blue filter, emits green fluorescence. When THP-1 cells were stimulated with Pg-LPS, there was a considerable increase in fluorescence, which decreased upon treatment with β-defensin 1, as shown in Figure 7 and Table 2.
# [4] = molecular docking; cited from earlier work
# Description: Two important functions of macrophages are to eliminate pathogens through phagocytosis and apoptosis of inflammatory cells and their subsequent clearance (efferocytosis). The present study analyzed the role of AMP, β-defensin 1, in Pg-LPS-stimulated THP-1 differentiated macrophage cells.
# [5] = tested on: THP-1 cells; assay: Apoptosis by flow cytometry (Annexin V & Dead Cell); type: cell-based, human; settings: β-defensin 1 22.62 ng/mL 24 h after Pg-LPS 1 µg/mL; untreated control 87.25%
# Procedure: Untreated control and Pg-LPS treated wells were also maintained. To the tubes, 100 μL of the Muse™ Annexin V & Dead Cell Reagents were added separately. The tubes were completely mixed by pipetting up and down or spinning at a medium speed for three to five seconds, followed by 20 minutes of incubation in the dark at room temperature. The cells were examined with a Flow Cytometer, gated against untreated control cells, and evaluated for apoptosis with the Muse FCS 3.0 software.
# The Muse Annexin V & Dead Cell Kit is a method to analyze cells in various stages of apoptosis, where fluorescently labeled Annexin V binds to phosphatidylserine (PS), which translocates to the outer surface of the cell membrane upon the onset of apoptosis. 7-AAD is excluded from live and healthy cells and permeates late-stage apoptotic and dead cells. […] The result is depicted in Figure 9.
# [6] = 6.25, 12.5, and 25 ng/mL, Pg-LPS stimulated
substance,measurement,setting,value
"β-defensin 1: β-Defensin 1 peptide was purchased from ThermoFisher Scientific, USA; cationic antimicrobial peptide (DHYNCVSSGGQCLYSACPIFTKIQGTCYRGKAKCCK; ends and bridges not checked; cysteine pairing not given here; UniProt P60022 33-68, looked up)",MPO Enzyme activity Average,[1]; 6.25 ng/mL,0.02795 U/mL
same,MPO Enzyme activity 1,[1]; 6.25 ng/mL,0.0278 U/mL
same,MPO Enzyme activity 2,[1]; 6.25 ng/mL,0.0281 U/mL
same,MPO Enzyme activity Average,[1]; 12.5 ng/mL,0.021 U/mL
same,MPO Enzyme activity 1,[1]; 12.5 ng/mL,0.0209 U/mL
same,MPO Enzyme activity 2,[1]; 12.5 ng/mL,0.0211 U/mL
same,MPO Enzyme activity Average,[1]; 25 ng/mL,0.01515 U/mL
same,MPO Enzyme activity 1,[1]; 25 ng/mL,0.0152 U/mL
same,MPO Enzyme activity 2,[1]; 25 ng/mL,0.0151 U/mL
same,MPO enzyme activity (in words),[1]; [6],decreased in a concentration-dependent manner
same,LOX Percentage inhibition Average,[2]; 6.25 ng/mL,21.485%
same,LOX Percentage inhibition 1,[2]; 6.25 ng/mL,21.23%
same,LOX Percentage inhibition 2,[2]; 6.25 ng/mL,21.74%
same,LOX Percentage inhibition Average,[2]; 12.5 ng/mL,38.08%
same,LOX Percentage inhibition 1,[2]; 12.5 ng/mL,38.85%
same,LOX Percentage inhibition 2,[2]; 12.5 ng/mL,37.31%
same,LOX Percentage inhibition Average,[2]; 25 ng/mL,54.675%
same,LOX Percentage inhibition 1,[2]; 25 ng/mL,55.2%
same,LOX Percentage inhibition 2,[2]; 25 ng/mL,54.15%
same,LOX percentage inhibition (in words),[2]; [6],increased in a concentration-dependent manner
same,"ROS generation, Fluorescence intensity",[3],5006.24 AU
same,binding affinity with Pg-LPS (docking),[4],good binding affinity with Pg-LPS
same,live cells,[5],77.35%
